Laboratory results reported in ChEMBL document CHEMBL1201862, “PubChem BioAssay data set” (2004).
The source made the active and inactive calls.

What was measured:
[1] = molecular target: T1, High affinity choline transporter 1 (Homo sapiens, UniProt Q9GZV3); assay: human choline transporter blockers, potency – cell-based, 5-point CRC, membrane potential dye, dose response (AID 504840); format: functional
T1 sequence (Q9GZV3 whole entry): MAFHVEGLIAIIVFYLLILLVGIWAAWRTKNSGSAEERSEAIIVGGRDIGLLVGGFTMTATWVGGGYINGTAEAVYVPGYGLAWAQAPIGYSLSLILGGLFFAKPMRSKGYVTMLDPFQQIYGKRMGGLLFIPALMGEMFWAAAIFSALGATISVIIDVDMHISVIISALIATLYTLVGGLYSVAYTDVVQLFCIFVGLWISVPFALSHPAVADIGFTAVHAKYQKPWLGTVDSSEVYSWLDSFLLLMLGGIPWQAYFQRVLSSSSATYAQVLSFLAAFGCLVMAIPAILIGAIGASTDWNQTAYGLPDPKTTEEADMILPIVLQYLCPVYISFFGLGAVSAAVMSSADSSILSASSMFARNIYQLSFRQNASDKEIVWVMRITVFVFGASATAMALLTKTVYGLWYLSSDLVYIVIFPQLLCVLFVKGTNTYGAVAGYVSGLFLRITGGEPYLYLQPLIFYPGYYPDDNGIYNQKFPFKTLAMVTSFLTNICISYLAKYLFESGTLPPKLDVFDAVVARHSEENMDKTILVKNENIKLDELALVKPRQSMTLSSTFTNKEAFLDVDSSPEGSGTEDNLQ

[2] = molecular target: T1, High affinity choline transporter 1; assay: human choline transporter blockers, potency – cell-based, 10-point CRC, membrane potential dye, dose response (AID 588401); format: functional;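 also: membrane potential dye fluorescence of choline-evoked depolarization via CHT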
[3] = molecular target: Phospholipase A2 (Homo sapiens, UniProt P04054); format: functional;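 also: confirmatory dose-response counterscreen on phospholipase A2, testing hits that came from an ultra-high-throughput screen for ATG4B inhibitors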
[4] = molecular target: T2, Cysteine protease ATG4B (Homo sapiens, UniProt Q9Y4P1); format: functional;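 also: Fluorescence-based dose-response confirmation assay measuring inhibition of ATG4B activity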
T2 sequence (Q9Y4P1 whole entry): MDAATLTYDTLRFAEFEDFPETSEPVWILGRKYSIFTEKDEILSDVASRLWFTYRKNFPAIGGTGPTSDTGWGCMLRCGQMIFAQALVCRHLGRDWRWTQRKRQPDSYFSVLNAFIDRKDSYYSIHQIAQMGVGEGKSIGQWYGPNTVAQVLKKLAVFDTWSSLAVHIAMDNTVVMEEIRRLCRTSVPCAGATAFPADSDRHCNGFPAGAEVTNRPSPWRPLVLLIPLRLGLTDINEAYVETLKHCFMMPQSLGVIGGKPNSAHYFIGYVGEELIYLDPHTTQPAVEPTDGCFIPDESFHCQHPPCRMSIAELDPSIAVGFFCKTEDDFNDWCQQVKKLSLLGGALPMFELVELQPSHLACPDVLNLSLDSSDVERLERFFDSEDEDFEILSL

[5] = molecular target: Prothrombin (Bos taurus, UniProt P00735); assay: thrombin protease inhibitors – biochemical, fluorescence polarization, uHTS hits, dose response (AID 602369); format: functional
[6] = molecular target: 72 kDa type IV collagenase (Homo sapiens, UniProt P08253); assay: Dose Response validation of uHTS RPN11 inhibitor hits using a MMP-2 Fluorescence assay.; format: functional
[7] = molecular target: 26S proteasome non-ATPase regulatory subunit 14 (Homo sapiens, UniProt O00487); assay: inhibition of proteasome subunit RPN11 – biochemical, fluorescence polarization, uHTS hits, confirmation (AID 602368); format: functional
[8] = bead-based luminescence quenchers, dual-tagged ARNT – biochemical, AlphaScreen, cherry-pick, artefact control for ARNT-TACC3 interaction inhibitor project, dose response (AID 651705); format: functional;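 also: AlphaScreen bead proximity signal that flags compounds interfering with the detection technology; potency reflects signal decrease which marks the compound as an assay artifact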
[9] = molecular target: T3, Carboxy-terminal domain RNA polymerase II polypeptide A small phosphatase 1 (Homo sapiens, UniProt Q9GZU7); assay: CTDSP1 inhibitors, concentration-response, biochemical, absorbance readout, ultra-high-throughput screen actives (AID 540297); format: functional
T3 sequence (Q9GZU7 whole entry): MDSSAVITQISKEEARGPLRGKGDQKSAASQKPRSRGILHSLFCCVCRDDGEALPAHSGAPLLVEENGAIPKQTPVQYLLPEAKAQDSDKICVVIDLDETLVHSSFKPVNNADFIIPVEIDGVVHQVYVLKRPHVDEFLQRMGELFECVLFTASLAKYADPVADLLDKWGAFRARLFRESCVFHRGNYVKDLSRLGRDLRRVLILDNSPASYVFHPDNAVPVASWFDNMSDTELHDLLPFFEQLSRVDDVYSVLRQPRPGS

[10] = molecular target: Estrogen receptor beta (Homo sapiens, UniProt Q92731); assay: blockers of SRC-3 recruitment to ERβ – biochemical, ELISA, streptavidin-HRP readout, orthogonal assay, confirmation (AID 1060)
[11] = molecular target: DNA (cytosine-5)-methyltransferase 1 (Homo sapiens, UniProt P26358); assay: inhibition of DNA methylation by DNMT1 – biochemical, fluorescent molecular beacon, confirmation (AID 602386); format: functional
DNA (cytosine-5)-methyltransferase 1, sequence (P26358 whole entry): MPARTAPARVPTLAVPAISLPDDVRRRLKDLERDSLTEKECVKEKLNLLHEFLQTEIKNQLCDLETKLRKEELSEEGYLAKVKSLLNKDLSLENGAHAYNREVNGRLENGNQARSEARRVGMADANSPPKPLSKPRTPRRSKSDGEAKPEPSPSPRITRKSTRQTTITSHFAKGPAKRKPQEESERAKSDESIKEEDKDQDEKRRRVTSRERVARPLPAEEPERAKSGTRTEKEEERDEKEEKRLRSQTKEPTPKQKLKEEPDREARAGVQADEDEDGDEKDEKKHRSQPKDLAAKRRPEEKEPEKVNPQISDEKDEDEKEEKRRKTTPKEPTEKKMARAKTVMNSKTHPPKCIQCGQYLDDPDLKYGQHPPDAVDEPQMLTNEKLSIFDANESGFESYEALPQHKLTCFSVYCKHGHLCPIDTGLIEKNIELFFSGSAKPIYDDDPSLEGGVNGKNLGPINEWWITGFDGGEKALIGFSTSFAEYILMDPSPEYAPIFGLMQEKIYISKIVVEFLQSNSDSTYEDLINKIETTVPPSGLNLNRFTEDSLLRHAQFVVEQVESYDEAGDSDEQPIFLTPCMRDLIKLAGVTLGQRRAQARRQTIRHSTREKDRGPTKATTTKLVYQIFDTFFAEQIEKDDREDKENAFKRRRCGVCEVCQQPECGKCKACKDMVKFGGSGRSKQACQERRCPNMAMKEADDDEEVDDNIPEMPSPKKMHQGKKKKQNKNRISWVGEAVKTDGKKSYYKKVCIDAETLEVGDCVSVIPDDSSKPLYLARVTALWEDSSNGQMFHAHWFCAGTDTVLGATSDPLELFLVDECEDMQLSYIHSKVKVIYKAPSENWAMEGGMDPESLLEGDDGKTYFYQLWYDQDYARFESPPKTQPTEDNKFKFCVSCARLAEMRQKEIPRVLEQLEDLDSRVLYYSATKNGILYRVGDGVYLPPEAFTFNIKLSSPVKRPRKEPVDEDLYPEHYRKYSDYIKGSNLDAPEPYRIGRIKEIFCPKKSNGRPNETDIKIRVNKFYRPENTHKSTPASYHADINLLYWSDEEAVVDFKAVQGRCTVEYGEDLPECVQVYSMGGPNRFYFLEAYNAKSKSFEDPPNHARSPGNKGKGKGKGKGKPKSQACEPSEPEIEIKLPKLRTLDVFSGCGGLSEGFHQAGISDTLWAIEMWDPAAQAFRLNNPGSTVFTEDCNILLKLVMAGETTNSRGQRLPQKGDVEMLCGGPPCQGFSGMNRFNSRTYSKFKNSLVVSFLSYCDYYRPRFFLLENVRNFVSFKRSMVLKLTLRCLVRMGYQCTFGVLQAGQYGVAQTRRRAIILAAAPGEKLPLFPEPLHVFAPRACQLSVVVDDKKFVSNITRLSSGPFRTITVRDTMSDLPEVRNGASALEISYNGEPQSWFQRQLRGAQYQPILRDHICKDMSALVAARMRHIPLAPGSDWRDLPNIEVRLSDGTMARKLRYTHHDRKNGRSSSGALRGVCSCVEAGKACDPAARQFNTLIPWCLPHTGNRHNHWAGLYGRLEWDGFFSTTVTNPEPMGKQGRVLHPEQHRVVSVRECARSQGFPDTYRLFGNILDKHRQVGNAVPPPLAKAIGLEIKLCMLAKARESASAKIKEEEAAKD

26S proteasome non-ATPase regulatory subunit 14, sequence (O00487 whole entry): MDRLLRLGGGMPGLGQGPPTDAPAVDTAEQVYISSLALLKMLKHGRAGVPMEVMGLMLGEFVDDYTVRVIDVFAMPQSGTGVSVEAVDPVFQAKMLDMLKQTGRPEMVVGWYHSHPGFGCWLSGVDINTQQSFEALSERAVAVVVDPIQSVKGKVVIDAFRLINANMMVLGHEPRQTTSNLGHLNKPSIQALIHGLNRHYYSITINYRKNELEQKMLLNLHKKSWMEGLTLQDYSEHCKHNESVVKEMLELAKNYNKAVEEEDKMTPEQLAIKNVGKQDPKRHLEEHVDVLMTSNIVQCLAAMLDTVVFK
72 kDa type IV collagenase, sequence (P08253 whole entry): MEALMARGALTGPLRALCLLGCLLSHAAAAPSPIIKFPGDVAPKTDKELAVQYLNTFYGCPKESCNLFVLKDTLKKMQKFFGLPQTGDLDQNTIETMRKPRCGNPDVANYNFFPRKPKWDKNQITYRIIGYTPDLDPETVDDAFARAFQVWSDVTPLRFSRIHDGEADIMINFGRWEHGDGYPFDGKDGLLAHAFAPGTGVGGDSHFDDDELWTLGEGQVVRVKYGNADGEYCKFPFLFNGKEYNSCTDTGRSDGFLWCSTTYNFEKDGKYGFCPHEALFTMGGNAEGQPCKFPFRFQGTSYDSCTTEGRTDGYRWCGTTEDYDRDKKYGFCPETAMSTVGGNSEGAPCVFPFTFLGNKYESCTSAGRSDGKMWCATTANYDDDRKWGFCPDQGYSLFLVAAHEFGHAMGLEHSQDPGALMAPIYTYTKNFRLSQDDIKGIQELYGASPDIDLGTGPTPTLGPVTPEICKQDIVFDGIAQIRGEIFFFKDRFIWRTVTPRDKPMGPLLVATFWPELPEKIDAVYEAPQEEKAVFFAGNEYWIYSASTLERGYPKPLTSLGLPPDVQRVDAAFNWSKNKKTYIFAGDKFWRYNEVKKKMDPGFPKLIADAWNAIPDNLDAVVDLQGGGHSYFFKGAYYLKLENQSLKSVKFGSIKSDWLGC
Phospholipase A2, sequence (P04054 whole entry): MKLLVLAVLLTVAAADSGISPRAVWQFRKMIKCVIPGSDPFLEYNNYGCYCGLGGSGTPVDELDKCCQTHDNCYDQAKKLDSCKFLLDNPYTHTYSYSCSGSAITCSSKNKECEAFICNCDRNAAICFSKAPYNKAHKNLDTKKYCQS
Estrogen receptor beta, sequence (Q92731 whole entry): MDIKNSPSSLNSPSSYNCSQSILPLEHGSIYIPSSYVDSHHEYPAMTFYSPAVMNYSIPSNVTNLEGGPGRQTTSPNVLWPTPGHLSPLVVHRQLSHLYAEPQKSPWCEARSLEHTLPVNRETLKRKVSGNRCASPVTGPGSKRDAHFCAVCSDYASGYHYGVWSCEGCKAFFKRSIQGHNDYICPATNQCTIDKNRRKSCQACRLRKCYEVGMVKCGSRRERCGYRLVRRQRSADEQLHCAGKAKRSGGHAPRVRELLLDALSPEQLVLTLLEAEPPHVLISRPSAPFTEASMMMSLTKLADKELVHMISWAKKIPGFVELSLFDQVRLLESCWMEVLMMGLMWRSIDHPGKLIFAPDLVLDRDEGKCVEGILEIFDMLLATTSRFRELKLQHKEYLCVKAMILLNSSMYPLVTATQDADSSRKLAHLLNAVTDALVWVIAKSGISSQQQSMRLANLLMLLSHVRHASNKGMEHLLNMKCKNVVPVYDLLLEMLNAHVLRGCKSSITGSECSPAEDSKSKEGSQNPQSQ

CCCC(=O)NC(=S)Nc1cccc(NC(=O)c2ccccc2Cl)c1
IC50 [1]: 10.3 µM (active)
IC50 [2]: 6.96 µM (active)

COc1ccccc1CNC(=O)c1ccccc1OCc1ccc(F)cc1
IC50 [3]: 49.5 µM (inactive)
IC50 [4]: 43.6 µM (inactive)

CCC(C)Sc1ccc([C@@H]2[C@H]3C(=O)N(CC)C(=O)[C@H]3[C@]3(C(=O)OC)CCCCN23)cc1 (some centres undefined)
IC50 [5]: 47.8 µM (active)
IC50 [6]: > 100 µM (inactive)
IC50 [7]: 69 µM (active)

CC(=O)[C@H]1[C@@H]2C(=O)N(c3cccc(Cl)c3)C(=O)[C@@H]2[C@H]2c3ccccc3C=CN21
AC50 [8]: 122 µM (active)

Cc1ccc(C(=O)O)cc1-c1ccc(/C=C2/NC(=O)N(c3ccccc3)C2=O)o1
IC50 [5]: 33.9 µM (active)
IC50 [9]: 4.1 µM (active)
IC50 [10]: > 50 µM (not active)
IC50 [6]: 29.3 µM (active)
IC50 [7]: 16.3 µM (active)
IC50 [11]: 11 µM (active)
